The text below walks through data of patent US9440964B2, “Pesticidal compositions and processes related thereto” (Dow AgroSciences LLC, priority 2011, dated 2016).

Where two headings read alike, the source gives them in different places.

In one assay the test system is CEW (Helicoverpa zea). The experiment in a line: Bioassay on Corn Earworm (CEW), 128-well diet tray. In kind it is in vivo. The following applies: Helicoverpa zea, 168 h; for pest or weed control at 50 µg/cm2: read-out: Rating CEW; for pest or weed control at 0.5 µg/cm2: 0.5 μg/cm^2 on diet, read-out: Rating CEW (*Tested at 0.5 μg/cm^2). How it is done: (§1) Certain molecules disclosed in this document were tested against BAW and CEW using procedures described in the following examples. In the reporting of the results, the “BAW & CEW Rating Table” was used (See Table Section).
Bioassays on CEW (Helicoverpa zea)
(§2) Trays were covered with a clear self-adhesive cover and held at 25° C., 14:10 light-dark for five to seven days. Percent mortality was recorded for the larvae in each well; activity in the eight wells was then averaged. The results are indicated in the table entitled “Table ABC: Biological Results” (See Table Section).

The test system of a further assay is BAW (Spodoptera exigua). Put plainly: Bioassay on Beet Armyworm (BAW), 128-well diet tray. The format is in vivo. The conditions noted are these: Spodoptera exigua, 168 h, read-out: Rating BAW. How it is done:
as §1
Bioassays on BAW (Spodoptera exigua)
as §2

Where [1] appears, read: percent mortality, second instar larvae, 50 μg/cm^2 on diet, five to seven days.
[2] abbreviates: percent mortality, second instar larvae, five to seven days.

For `COc1ccc(N/C(=N/C(=O)Nc2ccc(-c3ncn(-c4ccc(C(F)(F)F)cc4)n3)cc2)SCOC(=O)C(C)C)c(C)c1` [Molecule A1, (E)-((N′-(4-methoxy-2-methylphenyl)-N-((4-(1-(4-(trifluoromethyl)phenyl)-1H-1,2,4-triazol-3-yl)phenyl)carbamoyl)carbamimidoyl)thio) methyl isobutyrate], the pest or weed control at 50 µg/cm2 in the assay on CEW (Helicoverpa zea) (setting [1]) and in the assay on BAW (Spodoptera exigua) (setting [1]) was 50 to 100% in each case. As for `COc1ccc(N/C(=N/C(=O)Nc2ccc(-c3ncn(-c4ccc(C(F)(F)F)cc4)n3)cc2)SC)c(C)c1` [Molecule A2, (Z)-Methyl N-(4-methoxy-2-methylphenyl)-N′-((4-(1-(4-(trifluoromethyl)phenyl)-1H-1,2,4-triazol-3-yl)phenyl)carbamoyl)carbamimidothioate], the pest or weed control at 50 µg/cm2 in the assay on CEW (Helicoverpa zea) (setting [1]) and in the assay on BAW (Spodoptera exigua) (setting [1]) was 50 to 100% each time.

As to `CC(C)C(=O)OCS/C(=N\C(=O)Nc1ccc(-c2ncn(-c3ccc(OC(F)(F)F)cc3)n2)cc1)Nc1ccccc1C(C)C` [Molecule A5, (Z)—((N-(2-Isopropylphenyl)-N′-((4-(1-(4-(trifluoromethoxy)phenyl)-1H-1,2,4-triazol-3-yl)phenyl)carbamoyl)carbamimidoyl)thio)methyl isobutyrate], the pest or weed control at 50 µg/cm2 with CEW (Helicoverpa zea) (setting [1]) and with BAW (Spodoptera exigua) (setting [1]) was 50 to 100% each time. Turning to `CC(C)C(=O)OCS/C(=N\C(=O)Nc1ccc(-c2ncn(-c3ccc(OC(F)(F)C(F)(F)F)cc3)n2)cc1)Nc1ccccc1C(C)C` [Molecule A6, (Z)—((N-(2-Isopropylphenyl)-N′-((4-(1-(4-(pentafluoroethoxy)phenyl)-1H-1,2,4-triazol-3-yl)phenyl)carbamoyl)carbamimidoyl)thio)methyl isobutyrate], the pest or weed control at 50 µg/cm2 in the assay on CEW (Helicoverpa zea) (setting [1]) and with BAW (Spodoptera exigua) (setting [1]) was 50 to 100% each time. As for `Cc1cccc(C)c1N/C(=N/C(=O)Nc1ccc(-c2ncn(-c3ccc(C(F)(F)F)cc3)n2)cc1)SCOC(=O)CNC(=O)OCc1ccccc1` [Molecule A8, (Z)—((N-(2,6-Dimethylphenyl)-N′-((4-(1-(4-(trifluoromethyl)phenyl)-1H-1,2,4-triazol-3-yl)phenyl)carbamoyl)carbamimidoyl)thio)methyl 2-(((benzyloxy)carbonyl)amino)acetate], the pest or weed control at 50 µg/cm2 with CEW (Helicoverpa zea) and with BAW (Spodoptera exigua) was 50 to 100% each time. For `COc1ccc(N/C(=N/C(=O)Nc2ccc(-c3ncn(-c4ccc(OC(F)(F)F)cc4)n3)cc2)SCS[C@@H]2O[C@@H](C)[C@H](OC)[C@@H](OC)[C@H]2OC)c(C)c1` [Molecule A10, (Z)-(((2S,3R,4R,5S,6S)-3,4,5-Trimethoxy-6-methyltetrahydro-2H-pyran-2-yl)thio)methyl N-(4-methoxy-2-methylphenyl)-N′-((4-(1-(4-(trifluoromethoxy)phenyl)-1H-1,2,4-triazol-3-yl)phenyl)carbamoyl) carbamimidothioate], the pest or weed control at 50 µg/cm2 in the assay on CEW (Helicoverpa zea) (setting [1]) and with BAW (Spodoptera exigua) (setting [1]) was 50 to 100% each time. On to `Cc1cccc(C)c1N/C(S)=N/C(=O)Nc1ccc(-c2ncn(-c3ccc(C(F)(F)F)cc3)n2)cc1` [Molecule A12], for which the pest or weed control at 50 µg/cm2 with CEW (Helicoverpa zea) (setting [1]) and in the assay with BAW (Spodoptera exigua) (setting [1]) was 50 to 100% in each case. For `CC(C)c1ccccc1NC(=O)NC(=O)Nc1ccc(-c2ncn(-c3ccc(OC(F)(F)F)cc3)n2)cc1` [Molecule A13, 1-(2-isopropylphenyl)-3-[[4-[1-[4-(trifluoromethoxy)phenyl]-1,2,4-triazol-3-yl]phenyl]carbamoyl]urea], the pest or weed control at 50 µg/cm2 with CEW (Helicoverpa zea) (setting [1]) and with BAW (Spodoptera exigua) (setting [1]) was 50 to 100% in each case.

For the molecule `CC(C)c1ccccc1N1C(=O)CS/C1=N\C(=O)Nc1ccc(-c2ncn(-c3ccc(OC(F)(F)F)cc3)n2)cc1` [Molecule A19, (Z)-1-(3-(2-isopropylphenyl)-4-oxothiazolidin-2-ylidene)-3-(4-(1-(4-(trifluoromethoxy)phenyl)-1H-1,2,4-triazol-3-yl)phenyl)urea], the pest or weed control at 50 µg/cm2 in the assay on CEW (Helicoverpa zea) (setting [1]) and in the assay on BAW (Spodoptera exigua) (setting [1]) was 50 to 100% in each case.

In the case of `CC(=O)/C(C(=O)Nc1ccc(-c2ncn(-c3ccc(OC(F)(F)F)cc3)n2)cc1)=C(/S)Nc1ccccc1C(C)C` [Molecule A20, (E)-3-hydroxy-2-((2-isopropylphenyl)carbamothioyl)-N-(4-(1-(4-(trifluoromethoxy)phenyl)-1H-1,2,4-triazol-3-yl)phenyl)but-2-enamide], the pest or weed control at 50 µg/cm2 in the assay with CEW (Helicoverpa zea) (setting [1]) and with BAW (Spodoptera exigua) (setting [1]) was 50 to 100% each time.

As for `CC(C)c1ccccc1N/C(S)=C/C(=O)Nc1ccc(-c2ncn(-c3ccc(OC(F)(F)F)cc3)n2)cc1` [Molecule A21, 3-((2-isopropylphenyl)amino)-3-thioxo-N-(4-(1-(4-(trifluoromethoxy)phenyl)-1H-1,2,4-triazol-3-yl)phenyl)propanamide], the pest or weed control at 50 µg/cm2 with CEW (Helicoverpa zea) (setting [1]) and in the assay with BAW (Spodoptera exigua) (setting [1]) was 50 to 100% each time. `Cc1ccccc1N/C(S)=C/C(=O)Nc1ccc(-c2ncn(-c3ccc(OC(F)(F)F)cc3)n2)cc1` [Molecule A22, 3-thioxo-3-(o-tolylamino)-N-(4-(1-(4-(trifluoromethoxy)phenyl)-1H-1,2,4-triazol-3-yl)phenyl)propanamide]: the pest or weed control at 50 µg/cm2 in the assay with CEW (Helicoverpa zea) (setting [1]) and in the assay on BAW (Spodoptera exigua) (setting [1]) was 50 to 100% in each case.

Consider `Cc1cccc(C)c1N/C(S)=C/C(=O)Nc1ccc(-c2ncn(-c3ccc(OC(F)(F)F)cc3)n2)cc1` [Molecule A23, 3-((2,6-dimethylphenyl)amino)-3-thioxo-N-(4-(1-(4-(trifluoromethoxy)phenyl)-1H-1,2,4-triazol-3-yl)phenyl)propanamide], for which the pest or weed control at 50 µg/cm2 in the assay with CEW (Helicoverpa zea) (setting [1]) and in the assay on BAW (Spodoptera exigua) (setting [1]) was 50 to 100% each time. Take `CC(C)c1ccccc1N/C(S)=C(\C#N)C(=O)Nc1ccc(-c2ncn(-c3ccc(OC(F)(F)F)cc3)n2)cc1` [Molecule A25, (Z)-2-cyano-3-((2-isopropylphenyl)amino)-3-mercapto-N-(4-(1-(4-(trifluoromethoxy)phenyl)-1H-1,2,4-triazol-3-yl)phenyl)acrylamide]: the pest or weed control at 50 µg/cm2 in the assay on CEW (Helicoverpa zea) (setting [1]) lay within 0 to 50%. With `N#C/C(C(=O)Nc1ccc(-c2ncn(-c3ccc(OC(F)(F)F)cc3)n2)cc1)=C(/S)Nc1ccccc1-c1ccccc1` [Molecule A27, (Z)-3-([1,1′-Biphenyl]-2-ylamino)-2-cyano-3-mercapto-N-(4-(1-(4-(trifluoromethoxy)phenyl)-1H-1,2,4-triazol-3-yl)phenyl)acrylamide], the pest or weed control at 50 µg/cm2 in the assay with CEW (Helicoverpa zea) (setting [1]) is 0 to 50%. Consider `Cc1cccc(C)c1N/C(S)=C(\C#N)C(=O)Nc1ccc(-c2ncn(-c3ccc(OC(F)(F)F)cc3)n2)cc1` [Molecule A28, (Z)-2-Cyano-3-mercapto-3-((2,6-dimethylphenyl)amino)-N-(4-(1-(4-(trifluoromethoxy)phenyl)-1H-1,2,4-triazol-3-yl)phenyl)acrylamide], for which the pest or weed control at 50 µg/cm2 in the assay on CEW (Helicoverpa zea) (setting [1]) was in the range of 50 to 100%.

Consider `Cc1cccc(C)c1-n1c(C)cs/c1=N\C(=O)Nc1ccc(-c2ncn(-c3ccc(OC(F)(F)F)cc3)n2)cc1` [Molecule A42], for which the pest or weed control at 50 µg/cm2 in the assay on BAW (Spodoptera exigua) (setting [1]) is 0 to 50%.

As for `Cc1cc(C)c(-n2c(C)cs/c2=N\C(=O)Nc2ccc(-c3ncn(-c4ccc(OC(F)(F)F)cc4)n3)cc2)c(C)c1` [Molecule A43, (Z)-1-(3-mesityl-4-methylthiazol-2(3H)-ylidene)-3-(4-(1-(4-(trifluoromethoxy)phenyl)-1H-1,2,4-triazol-3-yl)phenyl)urea], the pest or weed control at 50 µg/cm2 with CEW (Helicoverpa zea) (setting [1]) is 50 to 100%. For the molecule `O=C(/N=C1\SCC(=O)N1c1ccccc1C1CC1)Nc1ccc(-c2ncn(-c3ccc(OC(F)(F)F)cc3)n2)cc1` [Molecule A66], the pest or weed control at 50 µg/cm2 in the assay on BAW (Spodoptera exigua) (setting [1]) fell in the range of 50 to 100%. `Cc1cccc(N/C(S)=N/C(=O)Nc2ccc(-c3ncn(-c4ccc(OC(F)(F)F)cc4)n3)cc2)c1C` [Molecule A71]: the pest or weed control at 50 µg/cm2 with BAW (Spodoptera exigua) (setting [1]) is 50 to 100%. Consider `Cc1ccc(C(C)C)c(N/C(S)=N/C(=O)Nc2ccc(-c3ncn(-c4ccc(OC(F)(F)F)cc4)n3)cc2)c1` [Molecule A83], for which the pest or weed control at 50 µg/cm2 with BAW (Spodoptera exigua) (setting [1]) fell in the range of 50 to 100%.

As to `CC(C)(C)c1ccccc1N1C(=O)CS/C1=N\C(=O)Nc1ccc(-c2ncn(-c3ccc(OC(F)(F)F)cc3)n2)cc1` [Molecule A95], the pest or weed control at 0.5 µg/cm2 in the assay on CEW (Helicoverpa zea) (setting [2]) fell in the range of 50 to 100%. Consider `CC(C)c1ccccc1N/C(S)=N/C(=O)Nc1ccc(-c2nnc(-c3ccc(OC(F)(F)C(F)(F)F)cc3)o2)cc1` [Molecule A96, N-[[(2-isopropyllphenyl)amino]thioxomethyl]-N′-((4-(5-(4-(perfluoroethoxy)phenyl)-1,3,4-oxadiazol-2-yl)phenyl))urea], for which, in the assay with BAW (Spodoptera exigua) (setting [1]), the pest or weed control at 50 µg/cm2 lay within 50 to 100%. Regarding `CC(C)c1ccccc1N1C(=O)CS/C1=N\C(=O)Nc1ccc(-c2nnc(-c3ccc(OC(F)(F)C(F)(F)F)cc3)o2)cc1` [Molecule A102, (Z)-1-(3-(2-isopropylphenyl)-4-oxothiazolidin-2-ylidene)-3-(4-(5-(4-(perfluoroethoxy)phenyl)-1,3,4-oxadiazol-2-yl)phenyl)urea], the pest or weed control at 0.5 µg/cm2 with CEW (Helicoverpa zea) (setting [2]) lay within 50 to 100%.

Take `Cc1cc(C)cc(N2C(=O)CS/C2=N\C(=O)Nc2ccc(-c3ncn(-c4ccc(OC(F)(F)F)cc4)n3)cc2)c1` [Molecule A104]: in the assay on CEW (Helicoverpa zea) (setting [2]), the pest or weed control at 0.5 µg/cm2 lay in the range of 50 to 100%.

As to `CC(C)c1ccccc1N/C(S)=N/C(=O)Nc1ccc(-c2ncn(-c3ccc(OC(F)(F)C(F)(F)F)cc3)n2)cc1` [Molecule A112], the pest or weed control at 50 µg/cm2 with BAW (Spodoptera exigua) (setting [1]) lay within 50 to 100%.

`CC(C)c1ccccc1N/C(S)=N/C(=O)Nc1ccc(-c2ncn(-c3ccc(C(F)(F)C(F)(F)C(F)(F)F)cc3)n2)cc1` [Molecule A113]: in the assay with BAW (Spodoptera exigua), the pest or weed control at 50 µg/cm2 was in the range of 50 to 100%.
